Measurements published in patent US8426414B2, “Modulators of G protein-coupled receptor 88” (Bristol-Myers Squibb Company, priority 2009, dated 2013).
pEC50: −log10 of the molar value. Where a name gives a salt, the structure may show the parent alone.

biological target: G protein-coupled receptor 88 (Homo sapiens, UniProt Q9GZN0); experiment: GPR88 functional assay for the Table 2 EC50 values (GTPγS assay and cAMP HTRF assay described; table does not say which); type: cell-based; settings: class symbol X; read-out: Range (EC50)
Experimental: 96 well GTPγS assay plates were purchased from Perkin Elmer. Wheat Germ Agglutinin PVT SPA beads and […] were purchased from Amersham GDP, GTPγS and all buffer reagents were from Sigma. 384 well white NBS plates were purchased from corning. Pertussis toxin was purchased from Calbiochem. All cell culture reagents were purchased from Invitrogen. Forskolin was purchased from Sigma. The cAMP HTRF kit was purchased from Cisbio International.
The GTPγS assay buffer consisted of 10 mM MgCl2, 180 mM NaCl, 200 uM GDP, 0.167 mg/ml DTT, 1 mM EGTA and 20 mM HEPES pH7.4. This buffer was used for dilution of membranes, beads, and ^35S GTPγS components. To each well of the 96 well assay plate 48 ul assay buffer, 2 ul of 100× compound, 50 ul membrane solution (0.2 ug/ul), 50 ul ^35S GTPγS solution (0.8 nM) and 50 ul of SPA beads (10 mg/ml). Non-specific binding was determined by the addition of cold GTPγS to control wells. The plates were sealed with clear sealing tape and incubated at room temperature for 1 hour. GTPγS activity was detected using a Wallac Micro-Beta Trilux liquid scintillation counter. Non-specific binding was determined using 10 uM cold GTPγS.
The cAMP HTRF assay is modified from the Cisbio International kit procedure 62AM4PEJ. Assay plates were prepared by stamping 0.1 ul of 100× compound stock solutions diluted in DMSO or DMSO alone into 384 well NBS plates. The cAMP HTRF assay was performed using cells in suspension. The cAMP HTRF assay buffer consisted of Hank's Balanced Salt Solution (HBSS), 2 mM CaCl2, 5 mM MgCl2, 20 mM HEPES and 1 mM 3-isobutyl-1-methylxanthine (IBMX) (added fresh at the time of assay). For pertussis toxin treatment pertussis toxin (100 ng/ml) was added to culture medium for 16 hours prior to assay. Confluent cells were disrupted with cell dissociation buffer count cells then centrifuged at 1000×g for 5 minutes. The cell pellet was resuspended in assay buffer alone for basal cAMP measurements or with 0.75 uM forskolin (added immediately prior to addition to wells) for addition to all other wells. Using a Multidrop 384 (Lab systems) 10 ul of cell suspension was added to each well containing compound or DMSO. The plates were incubated at room temperature for 30 minutes covered. During this time the cAMP standard curve was prepared as per manufacturer's instruction. At the end of the incubation 10 ul of anti-cAMP cryptate and 10 ul cAMP-XL, diluted in manufacturer's lysis buffer, were added to each well. The plated were incubated at room temperature for 60 minutes covered then read on an Envision plate reader (Perkin Elmer) and the 665 nm/620 nm fluorescence ratio determined Fluorescence ratio values were converted to molar cAMP concentrations from the standard curve using the GraphPad Prism program.

Sequence of G protein-coupled receptor 88 (Q9GZN0 whole entry, species assumed): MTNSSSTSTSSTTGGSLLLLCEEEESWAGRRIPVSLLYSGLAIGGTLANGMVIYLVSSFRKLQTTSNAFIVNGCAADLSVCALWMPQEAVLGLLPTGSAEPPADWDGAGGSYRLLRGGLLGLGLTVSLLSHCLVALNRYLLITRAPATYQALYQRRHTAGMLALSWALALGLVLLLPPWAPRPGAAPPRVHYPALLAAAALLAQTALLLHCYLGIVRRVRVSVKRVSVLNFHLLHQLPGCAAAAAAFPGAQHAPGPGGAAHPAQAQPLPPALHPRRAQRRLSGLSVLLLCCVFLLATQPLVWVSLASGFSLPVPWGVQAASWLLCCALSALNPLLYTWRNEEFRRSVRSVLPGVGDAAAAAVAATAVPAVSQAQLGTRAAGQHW

Row | pEC50 | SMILES
1 | 7.70 to 8.52 | CCCc1ccc(-c2ccc(N(CC3(N)CCCC3)C(=O)[C@@H]3C[C@H]3c3cccc(F)n3)cc2)cc1 (relative stereo) [Example 6, Trans-2-(6-fluoro-pyridin-2-yl)-cyclopropanecarboxylic acid (1-amino-cyclopentylmethyl)-(4′-propyl-biphenyl-4-yl)-amide]
2 | 7.70 to 8.52 | CC(C)Oc1ccc(-c2ccc(N(CC3(N)CCCC3)C(=O)[C@@H]3C[C@H]3c3cccc(F)n3)cc2)cc1 (relative stereo) [Example 7, Trans-2-(6-fluoro-pyridin-2-yl)-cyclopropanecarboxylic acid (1-amino-cyclopentylmethyl)-(4′-isopropoxy-biphenyl-4-yl)-amide]
3 | 7.70 to 8.52 | CCCc1ccc(-c2ccc(N(CC3(N)CCOCC3)C(=O)[C@@H]3C[C@H]3c3ccccn3)cc2)cc1 (relative stereo) [Example 9, Trans-2-Pyridin-2-yl-cyclopropanecarboxylic acid (4-amino-tetrahydro-pyran-4-ylmethyl)-(4′-propyl-biphenyl-4-yl)-amide]
4 | 7.70 to 8.52 | CC[C@H](C)[C@H](N)CN(C(=O)[C@H]1C[C@@H]1c1ccc(F)cn1)c1ccc(-c2ccc(COC)cc2)cc1 (stereo in doubt) [Example 4, (Trans)-2-(5-fluoro-pyridin-2-yl)-cyclopropanecarboxylic acid ((2S,3S)-2-amino-3-methyl-pentyl)-(4′-methoxymethyl-biphenyl-4-yl)-amide]
5 | 7.70 to 8.52 | CCCC#Cc1ccc(N(C[C@@H](N)[C@@H](C)CC)C(=O)C2CC2c2cccc(F)n2)cc1 (stereo in doubt) [Example 19, (1S,2S)-2-(6-Fluoro-pyridin-2-yl)-cyclopropanecarboxylic acid ((2S,3S)-2-amino-3-methyl-pentyl)-(4-pent-1-ynyl-phenyl)-amide 2TFA]
6 | 7.70 to 8.52 | CC[C@H](C)[C@H](N)CN(C(=O)[C@@H]1C[C@H]1c1ccccn1)c1ccc(-c2ccc(COC)cc2)cc1 [Example 1, (1R,2R)-2-Pyridin-2-yl-cyclopropanecarboxylic acid ((2S,3S)-2-amino-3-methyl-pentyl)-(4′-methoxymethyl-biphenyl-4-yl)-amide]
7 | 7.70 to 8.52 | CCCc1ccc(-c2ccc(N(C[C@@H](N)[C@@H](C)CC)C(=O)[C@@H]3C[C@H]3c3cccc(F)n3)cc2)cc1 [Example 14, Trans-2-(6-fluoro-pyridin-2-yl)-cyclopropanecarboxylic acid ((2S,3S)-2-amino-3-methyl-pentyl)-(4′-propyl-biphenyl-4-yl)-amide]
8 | 7.70 to 8.52 | CC[C@H](C)[C@H](N)CN(C(=O)[C@@H]1C[C@H]1c1cccc(F)n1)c1ccc(-c2ccc(COC)cc2)cc1 [Example 16, Trans-2-(6-fluoro-pyridin-2-yl)-cyclopropanecarboxylic acid ((2S,3S)-2-amino-3-methyl-pentyl)-(4′-methoxymethyl-biphenyl-4-yl)-amide]
9 | 7.70 to 8.52 | CCCc1ccc(-c2ccc(N(C[C@@H](N)[C@@H](C)OC)C(=O)[C@@H]3C[C@H]3c3cnccn3)cc2)cc1 [Example 18, Trans-2-pyrazin-2-yl-cyclopropanecarboxylic acid ((2R,3R)-2-amino-3-methoxy-butyl)-(4′-propyl-biphenyl-4-yl)-amide]

Further lines, the compound ahead of its results:

Row | SMILES | pEC50
10 | COCc1ccc(-c2ccc(N(CC3(N)CCCC3)C(=O)[C@@H]3C[C@H]3c3cccc(F)n3)cc2)cc1 (relative stereo) [Example 8, Trans-2-(6-fluoro-pyridin-2-yl)-cyclopropanecarboxylic acid (1-amino-cyclopentylmethyl)-(4′-methoxymethyl-biphenyl-4-yl)-amide] | 7.70 to 8.52
11 | CC[C@H](C)[C@H](N)CN(C(=O)[C@@H]1C[C@H]1c1ccccn1)c1ccc(-c2ccc(OC(C)C)cc2)cc1 [Example 2, (1R,2R)-2-Pyridin-2-yl-cyclopropanecarboxylic acid ((2S,3S)-2-amino-3-methyl-pentyl)-(4′-isopropoxy-biphenyl-4-yl)-amide] | 7.70 to 8.52
12 | CC#Cc1ccc(-c2ccc(N(C[C@@H](N)[C@@H](C)CC)C(=O)[C@@H]3C[C@H]3c3ccccn3)cc2)cc1 [Example 5, (1R,2R)-2-pyridin-2-yl-cyclopropanecarboxylic acid ((2S,3S)-2-amino-3-methyl-pentyl)-(4′-prop-1-ynyl-biphenyl-4-yl)-amide] | 7.70 to 8.52
13 | CCCc1ccc(-c2ccc(N(C[C@@H](N)[C@@H](C)CC)C(=O)[C@H]3C[C@@H]3c3ncccc3F)cc2)cc1 [Example 10] | 7.70 to 8.52
14 | CCCc1ccc(-c2ccc(N(C[C@@H](N)[C@@H](C)CC)C(=O)C3CC3c3cnccn3)cc2)cc1 (stereo partly drawn) [Example 11, (Trans)-2-pyrazin-2-yl-cyclopropanecarboxylic acid ((2S,3S)-2-amino-3-methyl-pentyl)-(4′-propyl-biphenyl-4-yl)-amide] | 7.70 to 8.52
15 | CC[C@H](C)[C@H](N)CN(C(=O)[C@@H]1C[C@H]1c1ccccn1)c1ccc(OCC2CCC2)cc1 [Example 13, (1R,2R)-2-Pyridin-2-yl-cyclopropanecarboxylic acid ((2S,3S)-2-amino-3-methyl-pentyl)-(4-cyclobutylmethoxy-phenyl)-amide] | 7.70 to 8.52
16 | CC[C@H](C)[C@H](N)CN(C(=O)[C@@H]1C[C@H]1c1ccc(F)cn1)c1ccc(OCC2CCC2)cc1 [Example 17, (1R,2R)-2-(5-Fluoro-pyridin-2-yl)-cyclopropanecarboxylic acid ((2S,3S)-2-amino-3-methyl-pentyl)-(4-cyclobutylmethoxy-phenyl)-amide] | 7.70 to 8.52
17 | CC[C@H](C)[C@H](N)CN(C(=O)[C@@H]1C[C@H]1c1ccc(F)cn1)c1ccc2cc(C3CC3)ccc2c1 [Example 20] | 7.70 to 8.52

same assay, conditions: value given as number; read-out: Range (EC50)

Row | pEC50 | SMILES
18 | 7.70 | CC[C@H](C)[C@H](N)CN(C(=O)[C@@H]1C[C@H]1c1ccc(F)cn1)c1ccc(OCC2CCC2)cc1 [Example 12, 2-(5-Fluoro-pyridin-2-yl)-cyclopropanecarboxylic acid ((2S,3S)-2-amino-3-methyl-pentyl)-(4-cyclobutylmethoxy-phenyl)-amide]
19 | 8.10 | CC[C@H](C)[C@H](N)CN(C(=O)[C@@H]1C[C@H]1c1cccc(F)n1)c1ccc(-c2ccc(OC(C)C)cc2)cc1 [Example 15, Trans-2-(6-fluoro-pyridin-2-yl)-cyclopropanecarboxylic acid ((2S,3S)-2-amino-3-methyl-pentyl)-(4′-isopropoxy-biphenyl-4-yl)-amide]

test system: not given; experiment: not given; settings: not given

Row | melting point [°C] | SMILES
20 | 180 to 183 | CCCc1ccc(-c2ccc(N(CC3(N)CCOCC3)C(=O)[C@@H]3C[C@H]3c3ccccn3)cc2)cc1 (relative stereo) (as salt: hydrochloride) [Example 9, Trans-2-Pyridin-2-yl-cyclopropanecarboxylic acid (4-amino-tetrahydro-pyran-4-ylmethyl)-(4′-propyl-biphenyl-4-yl)-amide]
